# Source: patent publication US20200352947A1, “USE OF SEROTONERGIC DRUGS TO TREAT VIRUS-INDUCED THROMBOCYTOPENIA” (NATIONAL UNIVERSITY OF SINGAPORE, priority 2017, published 2020)
# Experiments:
# DENV2-infected mice = assay: Platelet aggregation in peripheral blood smears of DENV2-infected WT mice; assay type: in vivo; conditions: 10^6 pfu DENV2 IP, ketanserin 8 mg/kg IP 1 hour after infection, blood 24 hours post-infection, vs vehicle 1% DMSO
# Description: Images depict peripheral blood smears from DENV2-infected mice. Mice were infected via intraperitoneal route (IP) with 10^6 pfu. (A) Mock infected mice. (B) DENV-infected mice treated with vehicle control IP. (C) DENV-infected mice given ketanserin 8 mg/kg IP. Blood was taken via cheek bleed 24 hours post-infection, smeared onto glass slides, stained with eosin and methylene blue and viewed under light microscopy using a 100× magnification lens. Dengue induces platelet aggregation, while administration of ketanserin prevents this. A few individual platelets are indicated by arrows; platelet aggregates are circled by dashed lines. Scale bar=10 μm.
# To test whether ketanserin could block platelet aggregation and/or prevent thrombocytopenia, a mouse model of dengue infection was used. WT mice were infected via intraperitoneal route (IP) with 10^6 pfu of DENV2 and, after 1 hour, treated with vehicle (1% DMSO) or ketanserin (8 mg/kg) IP. Blood was taken via cheek bleed 24 hours post-infection, smeared onto glass slides, stained with eosin and methylene blue and viewed under light microscopy using a 100× magnification lens. […] Selected red blood cells (RBC), platelets (arrows) and platelet aggregates (dashed lines) are labeled.
# human platelets = assay: Platelet activation (CD41/CD62P flow cytometry) in stimulated human whole blood; assay type: cell-based; conditions: ketanserin 100 nM or 500 nM, 15 min; n=4
# Description: (A) Whole blood from healthy human volunteers was isolated and stimulated with DENV2, serotonin, or DENV2+serotonin for 15 min. Cells were then fixed and stained for platelet markers CD41 and CD62P and analyzed by flow cytometry. DENV raised the activation levels of platelets. […] (B) Human whole blood was stimulated with DENV2, mast cells (MCs) or DENV2+MCs in the presence of vehicle or ketanserin (100 nM or 500 nM) for 15 min prior to assessment of platelet activation. […] Mean values are presented and error bars represent the SEM. P values were determined by one-way ANOVA; *P<0.05, ** P<0.01, ***P<0.001, ****P<0.0001, ns: non-significant.
# Additionally, products from DENV-stimulated human mast cells promoted platelet activation, dependent on platelet 5HT2A receptor, since this effect was abolished by ketanserin (FIG. 9B). […] Furthermore, ketanserin is effective in reversing DENV-induced human platelet activation.
# DENV2 = assay: DENV viral load by qRT-PCR in WT mice; assay type: in vivo
# Description: (A) WT mice were treated with vehicle or ketanserin (8 mg/kg) prior to subcutaneous footpad injection with 2×10^5 pfu of DENV or PBS. At 72 h post-infection, popliteal lymph nodes were isolated for viral quantification by qRT-PCR. […] (B-C) WT mice were infected with DENV2 (1×10^6 pfu, i.p.) and treated daily with either 8 mg/kg of ketanserin or vehicle. […] (C) At 1 day post-infection, the spleen was harvested and DENV2 was quantified by qRT-PCR.
# Since a concern with inhibition of host factors would be the effect on viral replication, the levels of viremia following DENV infection were measured. WT mice were treated with either ketanserin or vehicle prior to a subcutaneous footpad injection. The draining lymph nodes were then harvested to determine if targeting 5HT2A receptors had any influence on viral load. […] Subsequently it was determined whether targeting serotonin would have an effect on viral load in systemic infection. WT mice were treated with either ketanserin or vehicle following DENV systemic infection via intraperitoneal injection. Serum was isolated at days 1 and 3 post-infection and viremia quantified. […] The second model of severe DENV infection, the IFN-α,β, γ-R^−/− (IFNR-KO) mice, were subsequently infected and treated with either ketanserin or vehicle. These mice are known to have higher levels of viremia than WT mice.
structure (smiles),measurement,setting,value
"O=C(c1ccc(F)cc1)C1CCN(CCn2c(=O)[nH]c3ccccc3c2=O)CC1 [ketanserin, 3-[2-[4-(4-fluorobenzoyl)piperidin-1-yl]ethyl]-1H-quinazoline-2,4-dione]",DENV-induced platelet aggregation in peripheral blood smears,DENV2-infected mice,prevented
same,platelet activation in human whole blood stimulated with DENV2+mast cells,human platelets,abolished the significant increase in platelet activation
same,viral load in the spleen,"DENV2; DENV2 1×10^6 pfu i.p., ketanserin 8 mg/kg daily, 1 day post-infection",did not affect viral load in the spleen
same,serum viremia (DENV genome copy numbers),"DENV2; DENV2 1×10^6 pfu i.p., ketanserin 8 mg/kg daily, days 1 and 3 post-infection, n=5",no significant difference in serum DENV genome copy numbers at both time points
same,viral load in the draining (popliteal) lymph node,"DENV2; ketanserin 8 mg/kg prior to subcutaneous footpad injection of 2×10^5 pfu DENV, 72 h post-infection",did not affect viral load in the draining lymph node
